Test results as given in patent US20220184075A1, “PHARMACEUTICAL COMPOSITION CONTAINING HDAC6 INHIBITOR AS ACTIVE INGREDIENT FOR PREVENTION OR TREATMENT OF ITCHING” (BNH RESEARCH CO.,LTD., priority 2018, published 2022).
pIC50: −log10 of the molar value.

Key:
HDAC6 = target: T1, HDAC6 (Homo sapiens, UniProt Q9UBN7); settings: cited from earlier work; for Selectivity: HDAC6 inhibitor selectivity, in words; for pIC50: HDAC6 inhibitor
T1 sequence (Q9UBN7 1-1215): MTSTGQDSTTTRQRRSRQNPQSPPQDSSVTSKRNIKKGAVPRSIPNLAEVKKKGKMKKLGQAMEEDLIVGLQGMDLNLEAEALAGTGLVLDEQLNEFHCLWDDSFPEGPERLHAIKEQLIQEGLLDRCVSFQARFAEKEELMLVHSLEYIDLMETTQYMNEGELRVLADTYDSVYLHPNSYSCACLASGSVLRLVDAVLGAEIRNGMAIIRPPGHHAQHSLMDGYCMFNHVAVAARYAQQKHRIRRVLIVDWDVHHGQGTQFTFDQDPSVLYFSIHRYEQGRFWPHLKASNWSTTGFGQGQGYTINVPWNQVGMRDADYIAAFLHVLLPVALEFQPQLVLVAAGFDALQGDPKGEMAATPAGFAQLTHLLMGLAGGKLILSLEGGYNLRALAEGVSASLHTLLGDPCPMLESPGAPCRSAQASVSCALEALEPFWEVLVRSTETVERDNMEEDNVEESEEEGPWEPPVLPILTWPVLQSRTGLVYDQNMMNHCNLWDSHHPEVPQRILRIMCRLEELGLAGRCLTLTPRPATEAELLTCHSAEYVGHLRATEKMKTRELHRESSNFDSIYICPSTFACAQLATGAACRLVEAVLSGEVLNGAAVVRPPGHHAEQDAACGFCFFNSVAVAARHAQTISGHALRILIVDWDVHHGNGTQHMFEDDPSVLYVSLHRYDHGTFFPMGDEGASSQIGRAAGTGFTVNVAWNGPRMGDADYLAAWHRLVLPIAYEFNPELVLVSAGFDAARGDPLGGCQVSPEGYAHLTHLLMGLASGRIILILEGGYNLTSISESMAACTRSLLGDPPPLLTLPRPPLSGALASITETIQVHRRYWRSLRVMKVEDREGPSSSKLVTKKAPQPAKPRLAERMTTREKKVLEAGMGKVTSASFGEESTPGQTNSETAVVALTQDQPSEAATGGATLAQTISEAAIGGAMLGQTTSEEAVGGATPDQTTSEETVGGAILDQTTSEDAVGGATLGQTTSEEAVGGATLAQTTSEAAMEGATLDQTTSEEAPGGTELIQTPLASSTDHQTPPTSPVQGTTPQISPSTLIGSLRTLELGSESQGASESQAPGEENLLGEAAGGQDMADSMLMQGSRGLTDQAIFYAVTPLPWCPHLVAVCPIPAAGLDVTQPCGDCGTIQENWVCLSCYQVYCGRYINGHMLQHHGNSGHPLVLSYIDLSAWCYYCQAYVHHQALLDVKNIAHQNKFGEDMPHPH

[1] = system: trypsin-induced itching (scratching behavior); assay: Trypsin-induced scratching behavior in mice (cheek injection, bouts counted for 30 minutes); format: in vivo, Male C57BL/6 mice; settings: for number of scratching bouts compared with the only trypsin-injected mice: co-injected with 200 μg trypsin into skin of shaved right cheek, 30 minutes, 7.4 μg tubastatin A HCl or 61.4 ng M344, unpaired t-test
Experimental: Male C57BL/6 mice (6-week-old) were divided into groups of 3 to 5 animals, and isolated under a 12-hour light/dark cycle while being allowed to freely access water and food. Trypsin is diluted in phosphate buffered saline (PBS) to have the working concentration. […] All drug-containing stock solutions were stored in a freezer at −20 □, dissolved immediately prior to the behavioral experiment, and diluted with PBS to the final working concentration. For behavioral experiments, the right cheek of all mice was shaved, and the drug was injected after the acclimation period in an observation chamber for 2 days (2 hours/day) prior to the experiment date and 1 hour on the day of the experiment. The mice were subdued by being gently grabbed by a hand without anesthesia for drug treatment. All drugs were injected into the skin layer of the shaved right cheek at 20 μL using a 31-G insulin syringe. After returning to the observation chamber, all mice were videotaped for 30 minutes immediately after drug injection to evaluate itching behavior. For the behavioral experiment, the action of scratching the drug-injected site with a hind leg, and then placing the leg on the ground again or licking the site with a mouth was counted as 1 bout. All behavioral experiments were evaluated by testers in a blinded drug test. Statistical analysis for the experiments was performed using an unpaired t-test, and P<0.05 or P<0.01 was considered statistically significant (*: P<0.05; **: P<0.01). Data was expressed as mean±standard error (SEM).

Compound | Selectivity (HDAC6) | pIC50 (HDAC6) | number of scratching bouts compared with the only trypsin-injected mice [1] | scratching bouts for 30 minutes ([1]; 200 μg trypsin alone injected into cheek skin of normal mice, FIG. 1)
CN(C)c1ccc(C(=O)NCCCCCCC(=O)NO)cc1 [M344] | High | 7.06 | statistically significant smaller number of scratching bouts | 
trypsin |  |  |  | approximately 100 bouts
O=C(NO)c1cnc(NC2(c3cccc(F)c3)CCCCC2)nc1 [ACY-775] | Very high | 8.12 |  | 
O=C(NO)C1=CCCC1 [BRD9757] | Very high | 7.52 |  | 
CN1CCc2c(c3ccccc3n2Cc2ccc(C(=O)NO)cc2)C1 [Tubastatin A, tubastatin A] |  |  | statistically significant smaller number of scratching bouts | 
